Results as given in patent US10626081B2, “Farnesoid X receptor agonists and uses thereof” (Metacrine, Inc., priority 2015, dated 2020).

Columns and labels:
[1] = target: T1, FXR (Homo sapiens, UniProt Q96RI1); experiment: In Vitro FXR Assay (PGL3): luciferase reporter in transfected CV-1 cells; assay type: cell-based; details: CV-1 cells transfected with hFXR, hRXR, PGL3-ECRE*6-luc; 18 h incubation; luminescence
T1 construct: expressed in transfected cells; host or cells: CV-1 cells
T1 sequence (Q96RI1 1-486): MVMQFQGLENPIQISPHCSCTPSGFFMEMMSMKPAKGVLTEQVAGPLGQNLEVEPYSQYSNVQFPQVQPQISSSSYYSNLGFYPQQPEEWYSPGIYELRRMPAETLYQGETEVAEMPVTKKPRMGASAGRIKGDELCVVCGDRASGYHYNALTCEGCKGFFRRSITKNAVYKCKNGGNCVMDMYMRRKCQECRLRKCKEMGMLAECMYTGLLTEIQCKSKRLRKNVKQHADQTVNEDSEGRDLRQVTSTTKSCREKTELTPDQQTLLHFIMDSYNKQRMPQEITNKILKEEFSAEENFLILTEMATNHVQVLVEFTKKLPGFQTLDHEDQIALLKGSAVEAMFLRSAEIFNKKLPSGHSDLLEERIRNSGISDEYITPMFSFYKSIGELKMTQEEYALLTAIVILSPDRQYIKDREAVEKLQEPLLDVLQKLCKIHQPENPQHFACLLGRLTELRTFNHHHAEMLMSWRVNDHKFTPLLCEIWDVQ
T1 sequence (P19793 1-462 partner): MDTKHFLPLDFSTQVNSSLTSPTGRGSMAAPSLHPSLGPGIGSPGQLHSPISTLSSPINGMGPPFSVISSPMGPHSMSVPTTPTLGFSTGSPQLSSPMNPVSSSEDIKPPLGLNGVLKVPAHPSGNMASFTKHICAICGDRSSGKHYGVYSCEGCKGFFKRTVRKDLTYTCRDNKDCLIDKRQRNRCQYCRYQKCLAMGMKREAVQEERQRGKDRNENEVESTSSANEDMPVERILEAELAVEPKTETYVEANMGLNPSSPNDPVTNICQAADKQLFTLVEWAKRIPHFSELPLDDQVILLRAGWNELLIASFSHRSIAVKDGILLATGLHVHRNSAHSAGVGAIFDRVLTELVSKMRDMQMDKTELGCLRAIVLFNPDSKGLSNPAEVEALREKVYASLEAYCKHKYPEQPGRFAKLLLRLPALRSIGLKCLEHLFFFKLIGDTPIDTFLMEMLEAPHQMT
Procedure, shortened: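 CV-1 cells in charcoal-stripped FBS were transiently co-transfected with full-length human FXR, RXR, an ECRE×6-luciferase reporter, β-gal and YFP plasmids. Transfected cells were reseeded onto half-log compound dilutions and incubated 18 h. Luciferase luminescence was read after lysis, and EC50 was determined.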

[2] = target: T1, FXR; experiment: In Vitro FXR Assay (TK): TK-ECRE-luc reporter in transfected CV-1 cells; assay type: cell-based; details: CV-1 cells transfected with hFXR, hRXR, 18 h incubation, luminescence
Procedure, shortened: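 Luciferase read-out from lysed CV-1 cells exposed 18 h to DMSO-diluted compounds. Cells had been transfected overnight with expression plasmids for hFXR and hRXR plus TK-ECRE-luc reporter and pCMX-YFP, grown in charcoal-stripped serum at 37 °C, 5% CO2.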

| Cmpd/Fex (ratio of the EC50 for the test compound relative to the EC50 of the Fexaramine control) [1] | EC50 [2] | SMILES |
| --- | --- | --- |
| + (‘+’ means Cmpd/Fex > 100) | > 10 µM | CN(C)c1ccc(-c2ccc(CN(c3cccc(/C=C/C(=O)O)c3)C(=O)[C@H]3CC[C@H](O)CC3)cc2)cc1 [compound 89, (E)-3-(3-((1s,4s)-N-((4′-(Dimethylamino)-[1,1′-biphenyl]-4-yl)methyl)-4-hydroxycyclohexane-carboxamido)phenyl) acrylic acid] |
| +++ (‘+++’ means Cmpd/Fex < 10) | 1 to 10 µM | COC(=O)CCc1cc(C)cc(N(Cc2ccc(-c3ccc(N(C)C)cc3)cc2)C(=O)C2CCCCC2)c1 [compound 90, Methyl 3-(3-(N-((4′-(dimethylamino)-[1,1′-biphenyl]-4-yl)methyl)cyclohexanecarboxamido)-5-methylphenyl)propanoate] |
| + (‘+’ means Cmpd/Fex > 100) | > 10 µM | COC(=O)CCc1cc(N(Cc2ccc(-c3ccc(N(C)C)cc3)cc2)C(=O)C2CCCCC2)ccc1C [compound 91, Methyl 3-(5-(N-((4′-(dimethylamino)-[1,1′-biphenyl]-4-yl)methyl)cyclohexanecarboxamido)-2-methylphenyl)propanoate] |
| + (‘+’ means Cmpd/Fex > 100) | 1 to 10 µM | COC(=O)CCc1cccc(N(Cc2ccc(-c3ccc(N(C)C)cc3)cc2)C(=O)C2CCCCC2)c1C [compound 92, Methyl 3-(3-(N-((4′-(dimethylamino)-[1,1′-biphenyl]-4-yl)methyl)cyclohexanecarboxamido)-2-methylphenyl)propanoate] |
| ++ (‘++’ means Cmpd/Fex > 10 & < 100) | > 10 µM | COC(=O)CCc1ccc(C)c(N(Cc2ccc(-c3ccc(N(C)C)cc3)cc2)C(=O)C2CCCCC2)c1 [compound 93, Methyl 3-(3-(N-((4′-(dimethylamino)-[1,1′-biphenyl]-4-yl)methyl)cyclohexanecarboxamido)-4-methylphenyl)propanoate] |
| ++ (‘++’ means Cmpd/Fex > 10 & < 100) | 1 to 10 µM | COC(=O)CC(C)c1cccc(N(Cc2ccc(-c3ccc(N(C)C)cc3)cc2)C(=O)C2CCCCC2)c1 (centres unmarked) [compound 94, Methyl 3-(3-(N-((4′-(dimethylamino)-[1,1′-biphenyl]-4-yl)methyl)cyclohexanecarboxamido)phenyl) butanoate] |
| ++ (‘++’ means Cmpd/Fex > 10 & < 100) | 1 to 10 µM | COC(=O)C(C)Cc1cccc(N(Cc2ccc(-c3ccc(N(C)C)cc3)cc2)C(=O)C2CCCCC2)c1 (centres unmarked) [compound 95, Methyl 3-(3-(N-((4′-(dimethylamino)-[1,1′-biphenyl]-4-yl)methyl)cyclohexanecarboxamido)phenyl)-2-methylpropanoate] |
